The results in this text go back to patent US8604217B2, “Compound, a process for its preparation, a pharmaceutical composition, use of a compound, a method for modulating or regulating serine/threonine kinases and a serine/threonine kinases modulating agent” (Selvita S.A., priority 2009, dated 2013).

The target of assay [1] is PIM-1 (Homo sapiens (Human), UniProt P11309). As to the kind of experiment: Luminometric kinase assay for PIM1 kinase (Kinase-Glo). It counts as biochemical. The settings on record: 1 μM ATP, 25 min at RT. In a few lines:
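Kinase and substrate reacted in 8 mM MOPS/NaOH pH7.0, 0.2 mM EDTA, 2 mM MgCl2 with 1 μM ATP for 25 min at RT, compounds serially diluted from 1 μM. Remaining ATP read by Kinase-Glo luminescence; IC50 from variable-slope sigmoidal fit.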
For orientation: Kinase-Glo measures the ATP left after a reaction by luminescence.

The subject of assay [2] is human chronic myelocytic leukemia K562 cells. As to the kind of experiment: Growth inhibition test (MTS) on K562 cells. The class given is cell-based. Conditions: Homo sapiens, K562, 72 hours, read-out: K562 ED50. The method, then:
(§1) Ten thousand cells of human chronic myelocytic leukemia K562 were inoculated into each well of a 96-well microplate (manufactured by Corning Corp.) using Iscove's MDM medium (culture medium) containing 10% fetal calf serum (FCS). Next day, a dimethyl sulfoxide (DMSO) solution of each test compound prepared in a concentration of 10 mmol/L was further diluted with culture medium to the desired concentrations (0.1, 0.5, 1, 2.5, 5 and 10 micromol/L), and the diluted solution was added to each well. The individual wells were further cultured in 5% carbon dioxide at 37° C. for 72 hours. After completion of the culture, 10 μl MTS (3-(4,5-Dimethyl-2-thiazolyl)-5-(carboxymethoxyphenyl)-2-(4-sulfophenyl)-2H-tetrazolium, inner salt assay (CellTiter96® AQueous One Solution Cell Proliferation Assay, Promega) was added to each well, and culturing was performed in 5% carbon dioxide at 37° C. for 2 hours. Using a microplate spectrophotometer (Synergy 2 multi-mode microplate reader (BioTek)), the absorbance of each well was measured at 490 nm. The value for cells not incorporated with a test compound was designated as 100%. By comparing these values with the absorbance difference obtained at the well in which each test compound was added, the cell viability (% viability) after treatment with the test compound was calculated.

The subject of assay [3] is human colorectal adenocarcinoma SW480 cells. As to the kind of experiment: Growth inhibition test (MTS) on SW480 cells. The class given is cell-based. Conditions: Homo sapiens, SW480, 72 hours, read-out: SW480 ED50. How it is done: as §1, with “Two” for “Ten”, “colorectal adenocarcinoma SW480” for “chronic myelocytic leukemia K562”, “Corp.), and” for “Corp.)”, “DMEM/Ham's F121:1” for “Iscove's MDM”, “5%” for “10%”

In assay [4] the test system is human prostate adenocarcinoma PC3 cells. As to the kind of experiment: Growth inhibition test (MTS) on PC3 cells. The settings on record: Homo sapiens, PC-3, 72 hours, read-out: PC-3 ED50. It counts as cell-based.
Assay [5] concerns human hepatoma HepG2 cells. As to the kind of experiment: Growth inhibition test (MTS) on HepG2 cells. It counts as cell-based. Conditions: 72 hours, read-out: HepG2 ED50. The essentials: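 HepG2 cells in DMEM with 10% FCS were exposed for 72 h at 37 °C, 5% CO2, to 0.1, 0.5, 1, 2.5, 5 and 10 micromol/L compound. MTS was then added for 2 h and absorbance read at 490 nm. % viability was calculated relative to untreated cells set at 100%.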

Sequence of PIM-1 (P11309 whole entry): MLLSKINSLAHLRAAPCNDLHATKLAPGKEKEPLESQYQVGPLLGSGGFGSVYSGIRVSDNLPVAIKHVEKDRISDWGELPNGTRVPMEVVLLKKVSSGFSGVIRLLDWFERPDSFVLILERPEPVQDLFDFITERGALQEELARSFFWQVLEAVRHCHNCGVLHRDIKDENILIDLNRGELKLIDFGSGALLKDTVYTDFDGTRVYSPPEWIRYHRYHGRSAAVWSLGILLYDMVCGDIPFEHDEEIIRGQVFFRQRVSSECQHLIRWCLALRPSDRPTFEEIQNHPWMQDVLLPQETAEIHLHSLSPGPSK

For the molecule `NCCCNc1nc2c(Br)c(Br)c(Br)c(Br)c2[nH]1` [Compound 11, N-(3-aminopropyl)-4,5,6,7-tetrabromo-1H-benzo[d]imidazol-2-amine], the IC50 turned out to be 5.89 nM in assay [1]; 7470 nM in assay [2]; 2470 nM in assay [3]; 4900 nM in assay [4]; 2840 nM in assay [5].

For `Brc1c(Br)c(Br)c2[nH]c(N3CCNCC3)nc2c1Br` [Compound 20, 4,5,6,7-tetrabromo-2-(piperazin-1-yl)-1H-benzo[d]imidazole], the IC50 in assay [1] worked out at 16.9 nM; in assay [2] it was 6460 nM; in assay [3], 3450 nM; in assay [4], 5140 nM; in assay [5] it was 2860 nM.

For the molecule `NC1CCC(Nc2nc3c(Br)c(Br)c(Br)c(Br)c3[nH]2)CC1` (centres unmarked) [Compound 87, N1-(4,5,6,7-tetrabromo-1H-benzo[d]imidazol-2-yl)cyclohexane-1,4-diamine], the IC50 in assay [1] came out at 15.1 nM; in assay [2], 5590 nM; in assay [3] it was 2030 nM; in assay [4], 5650 nM; in assay [5], 3800 nM.

As to `NC1CCCC(Nc2nc3c(Br)c(Br)c(Br)c(Br)c3[nH]2)C1` (centres unmarked) [Compound 336, N1-(4,5,6,7-tetrabromo-1H-benzo[d]imidazol-2-yl)cyclohexane-1,3-diamine], the IC50 stood at 18.8 nM in assay [1]; 6880 nM in assay [2]; 4150 nM in assay [3]; 8400 nM in assay [4]; 4870 nM in assay [5].

Regarding `Brc1c(Br)c(Br)c2[nH]c(N[C@H]3COC[C@@H]3N3CCCC3)nc2c1Br` [Compound 337, 4,5,6,7-tetrabromo-N-((3R,4R)-tetrahydro-4-(pyrrolidin-1-yl)furan-3-yl)-1H-benzo[d]imidazol-2-amine], the IC50 in assay [1] is 25.6 nM; in assay [2] it was 3020 nM; in assay [3], 1610 nM; in assay [4] it was 3830 nM; in assay [5], 2400 nM.

`Brc1c(Br)c(Br)c2[nH]c(N[C@H]3COC[C@@H]3N3CCCCC3)nc2c1Br` [Compound 338, 4,5,6,7-tetrabromo-N-((3R,4R)-tetrahydro-4-(piperidin-1-yl)furan-3-yl)-1H-benzo[d]imidazol-2-amine]: the IC50 in assay [1] amounted to 21.7 nM; in assay [2], 5030 nM; in assay [3], 1950 nM; in assay [4], 4760 nM; in assay [5], 2760 nM.

Turning to `NCc1ccccc1CNc1nc2c(Br)c(Br)c(Br)c(Br)c2[nH]1` [Compound 349, N-(2-(aminomethyl)benzyl)-4,5,6,7-tetrabromo-1H-benzo[d]imidazol-2-amine], the IC50 in assay [1] came out at 69.8 nM; in assay [2], 6510 nM; in assay [3], 1610 nM; in assay [4], 4700 nM; in assay [5], 2510 nM.

As to `CN1CCCC(Nc2nc3c(Br)c(Br)c(Br)c(Br)c3[nH]2)CC1` (centres unmarked) [Compound 358, 4,5,6,7-tetrabromo-N-(1-methylazepan-4-yl)-1H-benzo[d]imidazol-2-amine], the IC50 in assay [1] is 5.82 nM; in assay [2], 6640 nM; in assay [3], 2420 nM; in assay [4] it was 6200 nM; in assay [5], 2650 nM.

Regarding `CC(C)n1c(N2CCNCC2)nc2c(Br)c(Br)c(Br)c(Br)c21` [Compound 359, 4,5,6,7-tetrabromo-1-isopropyl-2-(piperazin-1-yl)-1H-benzo[d]imidazole], the IC50 in assay [1] worked out at 6.84 nM; in assay [2] it was 3050 nM; in assay [3] it was 1600 nM; in assay [4], 2950 nM; in assay [5] it was 1850 nM.

Take `C[C@@H]1CN(c2nc3c(Br)c(Br)c(Br)c(Br)c3[nH]2)[C@@H](C)CN1` [Compound 364, 4,5,6,7-tetrabromo-2-((2S,5R)-2,5-dimethylpiperazin-1-yl)-1H-benzo[d]imidazole]: the IC50 in assay [1] is 10.2 nM; in assay [2], 5210 nM; in assay [3], 1270 nM; in assay [4] it was 4580 nM; in assay [5], 2330 nM.

As for `Brc1c(Br)c(Br)c2[nH]c(NC3CCCNCC3)nc2c1Br` (centres unmarked) [Compound 366, N-(azepan-4-yl)-4,5,6,7-tetrabromo-1H-benzo[d]imidazol-2-amine], the IC50 in assay [1] amounted to 3.5 nM; in assay [2], 5040 nM; in assay [3], 2840 nM; in assay [4], 5600 nM; in assay [5] it was 1700 nM.

On to `CC(C)NC1CCCCC1Nc1nc2c(Br)c(Br)c(Br)c(Br)c2[nH]1` (centres unmarked) [Compound 369, N1-(4,5,6,7-tetrabromo-1H-benzo[d]imidazol-2-yl)-N2-isopropylcyclohexane-1,2-diamine], for which the IC50 in assay [1] came to 41.1 nM; in assay [2], 3530 nM; in assay [3], 550 nM; in assay [4], 2450 nM; in assay [5], 1400 nM.

Consider `Brc1c(Br)c(Br)c2c(nc(N3CCNCC3)n2Cc2ccccc2)c1Br` [Compound 374, 1-benzyl-4,5,6,7-tetrabromo-2-(piperazin-1-yl)-1H-benzo[d]imidazole], for which the IC50 in assay [1] turned out to be 107 nM; in assay [2], 2940 nM; in assay [3], 1440 nM; in assay [4], 2500 nM; in assay [5], 1330 nM.

As to `CN(C)C1CCCN(c2nc3c(Br)c(Br)c(Br)c(Br)c3[nH]2)C1` (centres unmarked) [Compound 378, 1-(4,5,6,7-tetrabromo-1H-benzo[d]imidazol-2-yl)-N,N-dimethylpiperidin-3-amine], the IC50 is 39.1 nM in assay [1], 5000 nM in assay [3], 6660 nM in assay [4] and 4200 nM in assay [5].

For the molecule `Brc1c(Br)c(Br)c2[nH]c(N3CCC(C4CCNCC4)CC3)nc2c1Br` [Compound 386, 4,5,6,7-tetrabromo-2-(4-(piperidin-4-yl)piperidin-1-yl)-1H-benzo[d]imidazole], the IC50 stood at 58 nM in assay [1], 2860 nM in assay [2], 1770 nM in assay [3] and 2770 nM in assay [4].

`CCCCCNC1CCCCC1Nc1nc2c(Br)c(Br)c(Br)c(Br)c2[nH]1` (centres unmarked) [Compound 413, N1-(4,5,6,7-tetrabromo-1H-benzo[d]imidazol-2-yl)-N2-pentylcyclohexane-1,2-diamine]: the IC50 in assay [1] turned out to be 119 nM; in assay [2] it was 2730 nM; in assay [3] it was 580 nM; in assay [4] it was 1450 nM; in assay [5] it was 1360 nM.

Take `CCn1c(N2CCNCC2)nc2c(Br)c(Br)c(Br)c(Br)c21` [Compound 416, 4,5,6,7-tetrabromo-1-ethyl-2-(piperazin-1-yl)-1H-benzo[d]imidazole]: the IC50 worked out at 6.55 nM in assay [1]; 3650 nM in assay [2]; 1250 nM in assay [3]; 2100 nM in assay [4]; 1310 nM in assay [5].

Consider `CCCn1c(N2CCNCC2)nc2c(Br)c(Br)c(Br)c(Br)c21` [Compound 417, 4,5,6,7-tetrabromo-2-(piperazin-1-yl)-1-propyl-1H-benzo[d]imidazole], for which the IC50 in assay [1] was found to be 9.36 nM; in assay [2], 4960 nM; in assay [3], 2560 nM; in assay [4], 2570 nM; in assay [5] it was 1850 nM.

As to `Brc1c(Br)c(Br)c2[nH]c(NC3CCNCC3)nc2c1Br` [Compound 435, 4,5,6,7-tetrabromo-N-(piperidin-4-yl)-1H-benzo[d]imidazol-2-amine], the IC50 turned out to be 6.68 nM in assay [1], 5640 nM in assay [2], 1270 nM in assay [3] and 5790 nM in assay [4].
